# How the values were obtained:
# p-S6K, p-S6, LC3 = experiment: Cell signaling assay, western blot, HT29; assay type: cell-based, human; conditions: 0, 5, and 10 μM, FIG. 7b
# Description: Cells treated with various concentrations (0, 5, and 10 μM) of lomitapide were lysed with RIPA buffer containing a protease-inhibitor cocktail. The whole-cell lysate was incubated on ice for 30 minutes. After centrifugation at 4° C. and 13,300×g for 15 minutes, the supernatant was collected. For use as controls, HCT116, SW480, HT29, MDA-MB-231, and MDA-MB-468 cells were treated with 1 μM of torin, known as an mTOR inhibitor.
# For western blot analysis, the supernatant was loaded onto 10% SDS-PAGE gel. The separated proteins were blotted onto a PVDF membrane. Then, the blots were incubated with antibodies at 4° C. for 12 hours as follows (Table 2).
# Then, the blots were washed with TBST (a mixture of tris-buffered saline (TBS) and Tween 20), incubated with horseradish peroxidase-conjugated secondary antibody (Cell signaling) at 37° C. for 1 hour, and washed, followed by detecting enhanced chemiluminescence (ECL; Amersham).
# HCT116 = experiment: RNA-seq assay, gene set enrichment, pathway enrichment and DEG analysis; assay type: cell-based, human; conditions: FIG. 12
# Description: For the final detection of significant gene-sets, gene annotation databases (KEGG pathway, Gene Ontology, etc.) with various biological information about genes were used to discover various gene-sets by grouping genes with specific functions among all the genes used in the RNA-seq experiment. Significant genes were determined with reference to a difference in expression values between the two classes within each gene-set, and statistically significant gene-set was finally detected based on the significant genes. […] In DEG analysis, expression values of genes are measured and statistically processed to select a significant gene candidate group (differentially expression genes) with a difference in expression between a control and a comparison group.
# MC38 colorectal cancer = experiment: Mouse homograft tumor model, MC38 colorectal cancer; assay type: in vivo; conditions: MC38 in C57B6/N mice
# Description: (§1) For mouse homograft tumor model, experiments were conducted using female C57B6/N mice (wild-type, 6 weeks old) with MC38 colorectal cancer and B16F10 melanoma cell lines. MC38 colorectal cancer and B16F10 melanoma cell lines were each subcutaneously injected at a dose of 2×10^5 cells. Lomitapide used in the two models was formulated with 45% saline, 40% PEG300, 5% Tween-80, and 10% DMSO.
# From 10 days after the DMC38 colorectal cancer cells injection, lomitapide was intraperitoneally injected five times at a dose of 20 mg/kg, and anti-PD-1 mAb (clone RMP1-14, BioXCell, West Lebanon, NH, USA) or rat IgG2a iso-type control (clone 2A3, BioXCell, BE0089) in PBS was administered at a dose of 10 mg/kg at days 1, 4, 7, and 10 (FIGS. 18a and 18b).
# B16F10 melanoma = experiment: Mouse homograft tumor model, B16F10 melanoma; assay type: in vivo; conditions: B16F10 in C57B6/N mice
# Description: as §1
# For B16F10 skin melanoma, from 10 days after the tumor injection, lomitapide was intraperitoneally injected at a dose of 40 mg/kg three times at days 3, 5, and 7, and anti-PD-1 mAb (clone RMP1-14, BioXCell, West Lebanon, NH, USA) or rat IgG2a iso-type control (clone 2A3, BioXCell, BE0089) was administered at a dose of 20 mg/kg at days 1, 3, 5, and 7. The mice were euthanized immediately when signs of pain were observed, the body weight was reduced by 20% compared to the normal weight, or the tumor volume exceeded 1,000 mm^3 (FIGS. 19a and 19b).
structure (smiles),measurement,setting,value
"O=C(NC1CCN(CCCCC2(C(=O)NCC(F)(F)F)c3ccccc3-c3ccccc32)CC1)c1ccccc1-c1ccc(C(F)(F)F)cc1 [lomitapide, N-(2,2,2-trifluoroethyl)-9-[4-[4-[[[4′-(trifluoromethyl)[1,1′-biphenyl]2-yl]carbonyl]amino]-1-piperidinyl]butyl]-9H-fluoren-9-carboxamide]",conversion from LC3I into LC3II,"p-S6K, p-S6, LC3",increased induction of conversion from LC3I into LC3II
same,phosphorylation levels of target proteins (p-S6K and p-S6),"p-S6K, p-S6, LC3",remarkably decreased phosphorylation levels
same,"expression of autophagy-related genes ATG family, ULK1, and DDIT4 (DEG analysis)",HCT116,significantly expressed
same,tumor growth compared to the groups treated with the anti-PD-1 mAb,"MC38 colorectal cancer; lomitapide 20 mg/kg i.p., anti-PD-1 mAb 10 mg/kg",greatly suppressed and reduced
same,tumor growth compared to the control,MC38 colorectal cancer; lomitapide 20 mg/kg intraperitoneally five times,significantly suppressed and reduced tumor growth
same,tumor growth compared to the groups treated with the anti-PD-1 mAb,"B16F10 melanoma; lomitapide 40 mg/kg i.p., anti-PD-1 mAb 20 mg/kg",greatly suppressed and reduced
same,tumor growth compared to the control,B16F10 melanoma; lomitapide 40 mg/kg intraperitoneally three times,significantly suppressed and reduced tumor growth

# From patent publication US12582638B2, “Pharmaceutical composition for treating cancer, containing mTOR-signaling inhibitor as active ingredient” (KOREA ADVANCED INSTITUTE OF SCIENCE AND TECHNOLOGY, priority 2020, dated 2026)
